# In US20230416329A1, “A PEPTIDE WITH DISULFIDE BONDS AND INHIBITORY ACTIVITY AGAINST SERINE PROTEASES, DERIVED HYBRID PEPTIDES THEREOF, AND USES THEREOF” (INSTITUTE OF MATERIA MEDICA , CHINESE ACADEMY OF MEDICAL …, priority 2020, published 2023):
# How the values were obtained:
# [1] = target: DPP-IV (Homo sapiens, UniProt P27487); assay: Tolerance of GLP-1 and its analogues to DPP-IV (RP-HPLC remaining peak area); type: in vitro ADME; conditions: peptide 25 μM, DPP-IV 0.5 ng/μL, 37° C.; for Remaining peak area (%)/DPP-IV: 0.0 h; for remaining at 0.5 h, 25 μM / remaining at 2 h, 25 μM / remaining at 4 h, 25 μM / remaining at 8 h, 25 μM / remaining at 12 h, 25 μM: isolated DPP-IV enzyme in buffer, pH 8
# Chain of DPP-IV (P27487 whole entry, species assumed): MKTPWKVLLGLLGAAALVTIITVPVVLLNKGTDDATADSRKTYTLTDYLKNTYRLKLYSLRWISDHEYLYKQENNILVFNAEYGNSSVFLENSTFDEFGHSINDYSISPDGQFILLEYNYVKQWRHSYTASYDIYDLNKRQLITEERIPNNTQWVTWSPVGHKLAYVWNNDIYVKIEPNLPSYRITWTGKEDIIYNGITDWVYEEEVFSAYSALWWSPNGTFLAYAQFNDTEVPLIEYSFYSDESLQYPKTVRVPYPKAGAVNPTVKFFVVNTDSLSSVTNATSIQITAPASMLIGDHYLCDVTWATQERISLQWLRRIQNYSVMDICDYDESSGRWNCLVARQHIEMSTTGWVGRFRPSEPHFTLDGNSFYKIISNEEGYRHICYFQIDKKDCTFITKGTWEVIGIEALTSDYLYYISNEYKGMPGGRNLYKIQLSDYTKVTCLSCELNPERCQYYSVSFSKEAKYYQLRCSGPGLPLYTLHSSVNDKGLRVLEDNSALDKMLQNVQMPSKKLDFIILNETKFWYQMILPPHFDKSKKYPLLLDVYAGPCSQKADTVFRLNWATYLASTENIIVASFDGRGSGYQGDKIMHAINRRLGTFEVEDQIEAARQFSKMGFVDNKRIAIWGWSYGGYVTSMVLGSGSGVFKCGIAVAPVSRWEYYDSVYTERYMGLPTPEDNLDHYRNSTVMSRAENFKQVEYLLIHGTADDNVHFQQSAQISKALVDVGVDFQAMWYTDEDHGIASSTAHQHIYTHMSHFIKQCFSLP
# Experimental: (§1) Mix by centrifugation at 8000 rpm for 30 seconds.
# (2) Arrange a certain volume of 0.005 μg/μL DPP-IV solution in another sterile EP.
# [2] = target: elastase (Sus scrofa, UniProt P00772); assay: in vitro; conditions: for remaining at 0.025 h, 60 μM / remaining at 0.05 h, 60 μM / remaining at 0.075 h, 60 μM / remaining at 0.1 h, 60 μM / remaining at 0.15 h, 60 μM / remaining at 0.25 h, 60 μM / remaining at 0.5 h, 60 μM / remaining at 1 h, 60 μM: pH 8, Remaining peak area (%)/elastase
# Chain of elastase (P00772 27-266): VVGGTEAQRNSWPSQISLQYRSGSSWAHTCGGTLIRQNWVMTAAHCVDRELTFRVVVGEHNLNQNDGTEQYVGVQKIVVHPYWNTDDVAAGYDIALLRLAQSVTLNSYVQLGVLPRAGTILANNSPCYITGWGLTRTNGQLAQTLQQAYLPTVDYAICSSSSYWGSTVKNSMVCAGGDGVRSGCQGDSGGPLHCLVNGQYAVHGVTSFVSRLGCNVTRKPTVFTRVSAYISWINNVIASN
# Experimental: FIG. 19. […] At different time point, 25 μL aliquots was taken out, and 10% (v/v) TFA was added to terminate the reaction.
# as §1
# Arrange a certain volume of 0.5 μg/μL elastase solution in another sterile EP. Incubate the EP tubes containing peptides and enzymes at 37° C. for 5 min, and then add 4.5 μL of elastase solution to each EP tube containing peptides and mix well. Start timing and remove 25 μL of reaction solution at 1.5, 3.0, 4.5, 6.0, 9.0, 15.0, 30.0, and 60.0 min later, respectively. Add 3.75 μL of 10% TFA to terminate the reaction and mix well by centrifugation at 8000 rpm for 30 seconds.
# Referring to the experimental method in Example 5, in vitro stability of salmon Calcitonin analogs with oral administration activity to the enzymatic hydrolysis by trypsin, chymotrypsin and elastase were performed.
# Referring to the experimental method in Example 5, in vitro stability of IL-17A inhibitory peptides towards the enzymatic hydrolysis by trypsin, chymotrypsin and elastase were performed.
# [3] = Stability of GLP-1 and its analogues in human serum; conditions: 25% (v/v) human serum; for Remaining peak area (%)/human serum: 0.0 h, peptide 0.03 mM, 37° C.; for remaining at 0.5 h, 0.03 mM / remaining at 2 h, 0.03 mM / remaining at 4 h, 0.03 mM / remaining at 8 h, 0.03 mM / remaining at 12 h, 0.03 mM: human, pH 7
# [4] = target: chymotrypsin (Bos taurus, UniProt P00766); assay: Stability of hybrid peptides (GLP-1, PCSK9, calcitonin, 17A analogues) against chymotrypsin hydrolysis (RP-HPLC remaining peak area)
# Procedure, shortened: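 Peptide and 0.05 μg/μL chymotrypsin were preincubated at 37 °C for 5 min, then mixed. Aliquots taken from 1.5 up to 60.0 min were quenched with 10% TFA, and remaining peptide was measured as RP-HPLC peak area.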
# [5] = target: NEP24.11 (Homo sapiens, UniProt P08473); assay: Tolerance of GLP-1 and its analogues to NEP24.11 (RP-HPLC remaining peak area); type: in vitro ADME; conditions: after 8 hours
# Chain of NEP24.11 (P08473 whole entry): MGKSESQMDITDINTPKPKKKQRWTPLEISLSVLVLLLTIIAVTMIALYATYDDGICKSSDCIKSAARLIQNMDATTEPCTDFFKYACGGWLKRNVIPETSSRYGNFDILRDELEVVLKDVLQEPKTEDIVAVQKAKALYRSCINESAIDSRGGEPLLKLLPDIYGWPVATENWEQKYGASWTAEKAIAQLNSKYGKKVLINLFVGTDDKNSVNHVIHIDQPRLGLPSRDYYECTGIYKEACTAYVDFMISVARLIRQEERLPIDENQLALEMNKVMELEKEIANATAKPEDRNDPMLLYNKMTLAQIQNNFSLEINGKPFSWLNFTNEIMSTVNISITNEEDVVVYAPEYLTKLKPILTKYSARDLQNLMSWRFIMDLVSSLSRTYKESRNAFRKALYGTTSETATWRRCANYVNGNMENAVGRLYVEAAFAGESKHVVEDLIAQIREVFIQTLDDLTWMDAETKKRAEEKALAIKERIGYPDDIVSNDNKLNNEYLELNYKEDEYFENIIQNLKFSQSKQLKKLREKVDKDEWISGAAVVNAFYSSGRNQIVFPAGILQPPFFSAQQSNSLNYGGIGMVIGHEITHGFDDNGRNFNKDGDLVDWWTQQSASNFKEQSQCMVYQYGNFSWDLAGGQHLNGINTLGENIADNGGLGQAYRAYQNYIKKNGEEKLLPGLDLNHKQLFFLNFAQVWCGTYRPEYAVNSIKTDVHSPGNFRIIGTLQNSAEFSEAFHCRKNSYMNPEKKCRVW
# Experimental: as §1
# Arrange a certain volume of 0.04 μg/μL NEP24.11 enzyme solution in another sterile EP.
# [6] = isolated enzyme elastase, 1 h, 60 μM, pH 8
"remaining at 0.025 h, 60 μM ([2]; isolated enzyme elastase) [%]","remaining at 0.05 h, 60 μM ([2]; isolated enzyme elastase) [%]","remaining at 0.075 h, 60 μM ([2]; isolated enzyme elastase) [%]","remaining at 0.1 h, 60 μM ([2]; isolated enzyme elastase) [%]","remaining at 0.15 h, 60 μM ([2]; isolated enzyme elastase) [%]","remaining at 0.25 h, 60 μM ([2]; isolated enzyme elastase) [%]","remaining at 0.5 h, 60 μM ([2]; isolated enzyme elastase) [%]","remaining at 1 h, 60 μM ([2]; isolated enzyme elastase) [%]",Remaining peak area (%)/human serum [3] [%],"remaining at 0.5 h, 0.03 mM [3] [%]","remaining at 2 h, 0.03 mM [3] [%]","remaining at 4 h, 0.03 mM [3] [%]","remaining at 8 h, 0.03 mM [3] [%]","remaining at 12 h, 0.03 mM [3] [%]",Compound,Remaining peak area (%)/DPP-IV [1] [%],"remaining at 0.5 h, 25 μM [1] [%]","remaining at 2 h, 25 μM [1] [%]","remaining at 4 h, 25 μM [1] [%]","remaining at 8 h, 25 μM [1] [%]","remaining at 12 h, 25 μM [1] [%]",other results
73.1 ± 5,73.8 ± 2.8,70.4 ± 2,68.6 ± 2.4,66.9 ± 3.9,62.1 ± 4.3,58.4 ± 4.6,44.5 ± 0.9,100.0 ± 0.0,73.7 ± 3.7,63.5 ± 4.8,46.6 ± 6.4,42.4 ± 3.5,27.4 ± 0.3,CC[C@H](C)[C@H](NC(=O)[C@H](Cc1ccccc1)NC(=O)[C@H](CCC(=O)O)NC(=O)[C@H](CCCCN)NC(=O)[C@H](C)NC(=O)[C@H](C)NC(=O)[C@H](CCC(N)=O)NC(=O)CNC(=O)[C@H](CCC(=O)O)NC(=O)[C@H](CC(C)C)NC(=O)[C@H](Cc1ccc(O)cc1)NC(=O)[C@H](CO)NC(=O)[C@H](CO)NC(=O)[C@@H](NC(=O)[C@H](CC(=O)O)NC(=O)[C@H](CO)NC(=O)[C@@H](NC(=O)[C@H](Cc1ccccc1)NC(=O)[C@@H](NC(=O)CNC(=O)[C@H](CCC(=O)O)NC(=O)[C@H](C)NC(=O)[C@H](Cc1c[nH]cn1)NC(=O)CNC(=O)CNC(=O)[C@@H](NC(=O)[C@@H]1CCCN1C(=O)[C@@H](NC(=O)CN)[C@@H](C)CC)[C@@H](C)CC)[C@@H](C)O)[C@@H](C)O)C(C)C)C(=O)N[C@@H](C)C(=O)N[C@@H](Cc1c[nH]c2ccccc12)C(=O)N[C@@H](CC(C)C)C(=O)N[C@H](C(=O)N[C@@H](CCCCN)C(=O)NCC(=O)N[C@@H](CCCNC(=N)N)C(=O)NCC(=O)NCC(=O)N[C@@H](CCCCN)C(=O)NCC(=O)N[C@@H](CC(C)C)C(=O)N[C@H]1CSSC[C@@H](C(=O)N[C@@H](Cc2ccc(O)cc2)C(=O)O)NC(=O)[C@H](CCC(N)=O)NC(=O)[C@@H]2CCCN2C(=O)[C@@H]2CCCN2C(=O)[C@H]([C@@H](C)CC)NC(=O)[C@H](CO)NC(=O)[C@H](C)NC(=O)[C@H]([C@@H](C)O)NC1=O)C(C)C [D-GLP-1-EC1],100.0 ± 0.0,82.5 ± 0.6,81.2 ± 3.9,84 ± 2.2,82.5 ± 1.6,83.5 ± 0.5,serum stability (in words) [3]: more stable in serum
93.2 ± 2.4,88.9 ± 1.6,83.3 ± 1,82.7 ± 4.6,79.8 ± 2.2,72.5 ± 1.6,66.1 ± 2.1,49.5 ± 1.1,100.0 ± 0.0,86.9 ± 3.8,79.9 ± 6.2,73.9 ± 1.6,72.9 ± 8.2,53.5 ± 3.7,CC[C@H](C)[C@H](NC(=O)[C@H](Cc1ccccc1)NC(=O)[C@H](CCC(=O)O)NC(=O)[C@H](CCCCN)NC(=O)[C@H](C)NC(=O)[C@H](C)NC(=O)[C@H](CCC(N)=O)NC(=O)CNC(=O)[C@H](CCC(=O)O)NC(=O)[C@H](CC(C)C)NC(=O)[C@H](Cc1ccc(O)cc1)NC(=O)[C@H](CO)NC(=O)[C@H](CO)NC(=O)[C@@H](NC(=O)[C@H](CC(=O)O)NC(=O)[C@H](CO)NC(=O)[C@@H](NC(=O)[C@H](Cc1ccccc1)NC(=O)[C@@H](NC(=O)CNC(=O)[C@H](CCC(=O)O)NC(=O)[C@H](C)NC(=O)[C@H](Cc1c[nH]cn1)NC(=O)CNC(=O)CNC(=O)[C@@H](NC(=O)[C@@H]1CCCN1C(=O)[C@@H](NC(=O)CN)[C@@H](C)CC)[C@@H](C)CC)[C@@H](C)O)[C@@H](C)O)C(C)C)C(=O)N[C@@H](C)C(=O)N[C@@H](Cc1c[nH]c2ccccc12)C(=O)N[C@@H](CC(C)C)C(=O)N[C@H](C(=O)N[C@@H](CCCCN)C(=O)NCC(=O)N[C@@H](CCCNC(=N)N)C(=O)NCC(=O)NCC(=O)N[C@@H](CCCCN)C(=O)NCC(=O)N[C@@H](CC(C)C)C(=O)N[C@H]1CSSC[C@@H](C(=O)N[C@@H](CCC(N)=O)C(=O)O)NC(=O)[C@H]([C@@H](C)CC)NC(=O)[C@@H]2CCCN2C(=O)[C@@H]2CCCN2C(=O)[C@H]([C@@H](C)CC)NC(=O)[C@H](CO)NC(=O)[C@H](C)NC(=O)[C@H]([C@@H](C)O)NC1=O)C(C)C [D-GLP-1-EC12],100.0 ± 0.0,93.4 ± 0.8,92.3 ± 3,91.7 ± 0.6,93.3 ± 0.2,95.1 ± 1.4,"Remaining peak area (%)/elastase [2, 6]: about 45%; serum stability (in words) [3]: more stable in serum"
86 ± 5.4,81.9 ± 3.9,80.3 ± 2,80.1 ± 3.4,76.2 ± 1.6,70.4 ± 4.5,40.9 ± 1.1,~20,100.0 ± 0.0,72.8 ± 0.8,40.8 ± 4.3,23.4 ± 1.9,11.7 ± 2,3.4 ± 0.4,CC[C@H](C)[C@H](NC(=O)[C@H](Cc1ccccc1)NC(=O)[C@H](CCC(=O)O)NC(=O)[C@H](CCCCN)NC(=O)[C@H](C)NC(=O)[C@H](C)NC(=O)[C@H](CCC(N)=O)NC(=O)CNC(=O)[C@H](CCC(=O)O)NC(=O)[C@H](CC(C)C)NC(=O)[C@H](Cc1ccc(O)cc1)NC(=O)[C@H](CO)NC(=O)[C@H](CO)NC(=O)[C@@H](NC(=O)[C@H](CC(=O)O)NC(=O)[C@H](CO)NC(=O)[C@@H](NC(=O)[C@H](Cc1ccccc1)NC(=O)[C@@H](NC(=O)CNC(=O)[C@H](CCC(=O)O)NC(=O)[C@H](C)NC(=O)[C@H](Cc1c[nH]cn1)NC(=O)CNC(=O)CNC(=O)[C@@H](NC(=O)[C@@H]1CCCN1C(=O)[C@@H](NC(=O)CNC(=O)CNC(=O)[C@H](Cc1ccc(O)cc1)NC(=O)[C@@H]1CSSC[C@H](NC(=O)[C@@H](N)CC(C)C)C(=O)N[C@@H]([C@@H](C)O)C(=O)N[C@@H](C)C(=O)N[C@@H](CO)C(=O)N[C@@H]([C@@H](C)CC)C(=O)N2CCC[C@H]2C(=O)N2CCC[C@H]2C(=O)N[C@@H](CCC(N)=O)C(=O)N1)[C@@H](C)CC)[C@@H](C)CC)[C@@H](C)O)[C@@H](C)O)C(C)C)C(=O)N[C@@H](C)C(=O)N[C@@H](Cc1c[nH]c2ccccc12)C(=O)N[C@@H](CC(C)C)C(=O)N[C@H](C(=O)N[C@@H](CCCCN)C(=O)NCC(=O)N[C@@H](CCCNC(=N)N)C(=O)NCC(=O)NCC(=O)N[C@@H](CCCCN)C(=O)O)C(C)C [EC1-D-GLP-1],100.0 ± 0.0,101 ± 1.7,99.6 ± 0.6,104.5 ± 0.3,97.4 ± 4.2,93.6 ± 4.9,"Remaining peak area (%)/elastase [2, 6]: 24.2 ± 0.6%"
–,–,–,–,–,–,–,–,–,–,–,–,–,–,"CC[C@H](C)[C@H](NC(=O)[C@H](Cc1ccccc1)NC(=O)[C@H](CCC(=O)O)NC(=O)[C@H](CCCCN)NC(=O)[C@H](C)NC(=O)[C@H](C)NC(=O)[C@H](CCC(N)=O)NC(=O)CNC(=O)[C@H](CCC(=O)O)NC(=O)[C@H](CC(C)C)NC(=O)[C@H](Cc1ccc(O)cc1)NC(=O)[C@H](CO)NC(=O)[C@H](CO)NC(=O)[C@@H](NC(=O)[C@H](CC(=O)O)NC(=O)[C@H](CO)NC(=O)[C@@H](NC(=O)[C@H](Cc1ccccc1)NC(=O)[C@@H](NC(=O)CNC(=O)[C@H](CCC(=O)O)NC(=O)[C@H](C)NC(=O)[C@@H](N)Cc1c[nH]cn1)[C@@H](C)O)[C@@H](C)O)C(C)C)C(=O)N[C@@H](C)C(=O)N[C@@H](Cc1c[nH]c2ccccc12)C(=O)N[C@@H](CC(C)C)C(=O)N[C@H](C(=O)N[C@@H](CCCCN)C(=O)NCC(=O)N[C@@H](CCCN=C(N)N)C(=O)NCC(=O)O)C(C)C [GLP-1 (7-37), reference compound]",–,–,–,–,–,–,"stability towards chymotrypsin hydrolysis (in words) [4]: completely degraded; Remaining peak area (%)/elastase ([2]; 30.0 min, peptide 60 μM, elastase 10 ng/μL, 37° C.): no GLP-1 prototype molecule was detected; degradation by NEP24.11 (in words) [5]: almost completely degraded"
